ChEMBL document CHEMBL1201862, “PubChem BioAssay data set” (2004)
Active and inactive are the calls of the source.

Tests used:
[1] = target: NACHT, LRR and PYD domains-containing protein 3 (Homo sapiens, UniProt Q96P20); assay: NALP3 inhibitors in yeast, dose response, luminescent (AID 488799); assay type: functional
[2] = target: Delta-type opioid receptor (Homo sapiens, UniProt P41143); assay: SAR Analysis of Antagonists of the DOR Receptor using an Image-Based Assay - Set 3. [Related pubchem assays (depositor defined):AID1777, AID1785]; assay type: functional;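 also: U2OS cells expressing DOR1 and beta-arrestin GFP stimulated with 100 nM SNC80; imaging of GFP-tagged beta-arrestin moving into spots after receptor activation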
Delta-type opioid receptor, sequence (P41143 whole entry): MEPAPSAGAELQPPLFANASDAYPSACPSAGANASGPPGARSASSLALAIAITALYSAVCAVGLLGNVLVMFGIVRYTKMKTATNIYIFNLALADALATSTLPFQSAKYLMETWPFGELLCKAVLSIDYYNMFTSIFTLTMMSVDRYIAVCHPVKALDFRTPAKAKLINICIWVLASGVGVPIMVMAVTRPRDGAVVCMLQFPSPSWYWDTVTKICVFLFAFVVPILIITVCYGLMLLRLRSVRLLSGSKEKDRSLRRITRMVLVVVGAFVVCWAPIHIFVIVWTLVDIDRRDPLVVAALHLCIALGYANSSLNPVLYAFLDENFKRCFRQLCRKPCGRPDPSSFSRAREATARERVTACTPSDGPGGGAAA

[3] = target: Mu-type opioid receptor (Homo sapiens, UniProt P35372); assay: SAR Analysis of Antagonists of the MOR Receptor using an Image-Based Assay - Set 3. [Related pubchem assays (depositor defined):AID1777, AID1785, AID1786, AID1966, AID2133, AID2136, AID2284, AID2285, AID2420]; assay type: functional
Mu-type opioid receptor, sequence (P35372 whole entry): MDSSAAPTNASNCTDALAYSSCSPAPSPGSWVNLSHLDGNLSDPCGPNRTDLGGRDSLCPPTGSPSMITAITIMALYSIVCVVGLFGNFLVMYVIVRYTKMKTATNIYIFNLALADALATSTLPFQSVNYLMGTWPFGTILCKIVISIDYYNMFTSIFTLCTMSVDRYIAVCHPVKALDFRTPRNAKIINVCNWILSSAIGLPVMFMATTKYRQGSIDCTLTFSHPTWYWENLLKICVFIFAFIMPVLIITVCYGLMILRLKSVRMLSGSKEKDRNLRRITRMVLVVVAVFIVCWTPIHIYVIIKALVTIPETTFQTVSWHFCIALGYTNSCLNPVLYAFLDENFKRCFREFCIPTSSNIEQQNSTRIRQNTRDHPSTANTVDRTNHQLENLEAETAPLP

[4] = target: T1, Kappa-type opioid receptor (Homo sapiens, UniProt P41145); assay: SAR analysis of Antagonists of the Kappa Opioid Receptor (KOR) using an Image-Based Assay - Set 4. [Related pubchem assays (depositor defined):AID1777, AID1785]; assay type: functional
T1 sequence (P41145 whole entry): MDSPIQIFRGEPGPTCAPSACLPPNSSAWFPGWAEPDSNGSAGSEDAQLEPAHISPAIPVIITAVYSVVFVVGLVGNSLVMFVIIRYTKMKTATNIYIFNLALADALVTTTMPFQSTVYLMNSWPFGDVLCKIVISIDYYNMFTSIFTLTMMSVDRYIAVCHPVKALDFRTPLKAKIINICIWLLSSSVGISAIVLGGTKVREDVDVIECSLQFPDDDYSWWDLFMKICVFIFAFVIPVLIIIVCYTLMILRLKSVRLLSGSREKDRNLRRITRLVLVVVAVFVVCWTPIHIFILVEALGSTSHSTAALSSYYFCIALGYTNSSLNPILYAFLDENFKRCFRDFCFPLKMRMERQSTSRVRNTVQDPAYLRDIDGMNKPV

[5] = target: T1, Kappa-type opioid receptor; assay: SAR analysis of small molecule antagonists of the kappa opioid receptor via a luminescent beta-arrestin assay - Set 4. [Related pubchem assays (depositor defined):AID1777, AID1778, AID1785, AID1786, AID1966, AID2133, AID2136, AID2285]; assay type: functional
[6] = target: Wee1-like protein kinase (Homo sapiens, UniProt P30291); assay: G2/M cell cycle arrest in HeLa, late-stage follow-up, mechanism study for Wee1 degradation inhibitor project, FACS, panel member Wee1 Degradation (AID 2088)
Wee1-like protein kinase, sequence (P30291 whole entry): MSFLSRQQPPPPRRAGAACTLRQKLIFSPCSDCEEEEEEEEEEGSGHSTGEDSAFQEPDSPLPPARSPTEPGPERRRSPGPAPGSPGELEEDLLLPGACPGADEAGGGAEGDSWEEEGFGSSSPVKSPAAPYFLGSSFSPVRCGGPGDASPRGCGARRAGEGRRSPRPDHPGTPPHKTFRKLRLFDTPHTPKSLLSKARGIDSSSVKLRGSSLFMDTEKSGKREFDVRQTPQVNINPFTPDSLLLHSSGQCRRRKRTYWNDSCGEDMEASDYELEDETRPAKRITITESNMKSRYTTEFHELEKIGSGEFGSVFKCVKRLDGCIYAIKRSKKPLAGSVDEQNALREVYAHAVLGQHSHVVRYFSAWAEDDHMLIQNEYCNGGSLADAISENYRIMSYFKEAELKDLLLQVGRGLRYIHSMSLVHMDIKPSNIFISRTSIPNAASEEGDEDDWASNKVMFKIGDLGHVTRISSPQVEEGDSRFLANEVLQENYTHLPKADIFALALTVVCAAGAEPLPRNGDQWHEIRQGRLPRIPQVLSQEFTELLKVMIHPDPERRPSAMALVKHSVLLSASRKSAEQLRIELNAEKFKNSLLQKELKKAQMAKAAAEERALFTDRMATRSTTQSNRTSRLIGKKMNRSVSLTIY

[7] = target: G2/mitotic-specific cyclin-B1 (Homo sapiens, UniProt P14635); assay: G2/M cell cycle arrest in HeLa, late-stage follow-up, mechanism study for Wee1 degradation inhibitor project, FACS, panel member Cyclin B Degradation (AID 2088)
G2/mitotic-specific cyclin-B1, sequence (P14635 whole entry): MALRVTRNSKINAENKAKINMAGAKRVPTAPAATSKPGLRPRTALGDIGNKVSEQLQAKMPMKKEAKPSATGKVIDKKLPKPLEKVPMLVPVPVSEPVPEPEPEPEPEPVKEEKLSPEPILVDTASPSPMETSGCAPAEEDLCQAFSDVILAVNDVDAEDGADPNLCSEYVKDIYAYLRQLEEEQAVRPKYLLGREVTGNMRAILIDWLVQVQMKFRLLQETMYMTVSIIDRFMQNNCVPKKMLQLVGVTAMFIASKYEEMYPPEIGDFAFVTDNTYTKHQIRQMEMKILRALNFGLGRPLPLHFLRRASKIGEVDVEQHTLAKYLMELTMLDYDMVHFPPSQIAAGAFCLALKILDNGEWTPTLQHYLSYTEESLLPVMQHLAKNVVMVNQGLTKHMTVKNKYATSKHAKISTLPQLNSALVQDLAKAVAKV

[8] = target: Cyclin-dependent kinase 5/CDK5 activator 1 (Homo sapiens, UniProt Q00535); assay: CDK5/p35 kinase inhibitors, dose response, biochemical, cherry-picked samples, set 2 (AID 504545)
Cyclin-dependent kinase 5/CDK5 activator 1, sequence (Q00535 whole entry): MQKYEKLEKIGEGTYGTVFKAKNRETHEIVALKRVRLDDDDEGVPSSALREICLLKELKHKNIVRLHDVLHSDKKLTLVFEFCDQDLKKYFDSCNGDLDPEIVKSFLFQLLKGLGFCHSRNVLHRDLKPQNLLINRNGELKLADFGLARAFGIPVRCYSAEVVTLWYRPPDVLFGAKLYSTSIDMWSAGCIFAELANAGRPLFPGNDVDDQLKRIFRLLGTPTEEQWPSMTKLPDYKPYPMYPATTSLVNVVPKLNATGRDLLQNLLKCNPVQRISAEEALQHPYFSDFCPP
Cyclin-dependent kinase 5/CDK5 activator 1, sequence (Q15078 whole entry, further chain): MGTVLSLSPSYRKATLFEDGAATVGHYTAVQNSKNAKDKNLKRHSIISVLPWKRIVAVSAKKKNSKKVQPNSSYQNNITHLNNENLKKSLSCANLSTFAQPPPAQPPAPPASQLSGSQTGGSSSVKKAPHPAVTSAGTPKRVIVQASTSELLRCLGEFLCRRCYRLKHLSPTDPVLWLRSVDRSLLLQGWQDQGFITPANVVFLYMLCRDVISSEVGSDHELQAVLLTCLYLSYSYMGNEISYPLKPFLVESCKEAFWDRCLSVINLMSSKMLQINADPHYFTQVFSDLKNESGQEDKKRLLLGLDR

[9] = inhibition of ADP-Glo detection reagents, dose response, artefact control for CDK5 inhibitor project, biochemical, luminescence, cherry-picked samples, set 2 (AID 504546); assay type: functional
[10] = target: Luciferin 4-monooxygenase (Photinus pyralis, UniProt P08659); assay: firefly luciferase enzyme inhibitors, dose response, biochemical, luminescence (AID 1891)
Luciferin 4-monooxygenase, sequence (P08659 whole entry): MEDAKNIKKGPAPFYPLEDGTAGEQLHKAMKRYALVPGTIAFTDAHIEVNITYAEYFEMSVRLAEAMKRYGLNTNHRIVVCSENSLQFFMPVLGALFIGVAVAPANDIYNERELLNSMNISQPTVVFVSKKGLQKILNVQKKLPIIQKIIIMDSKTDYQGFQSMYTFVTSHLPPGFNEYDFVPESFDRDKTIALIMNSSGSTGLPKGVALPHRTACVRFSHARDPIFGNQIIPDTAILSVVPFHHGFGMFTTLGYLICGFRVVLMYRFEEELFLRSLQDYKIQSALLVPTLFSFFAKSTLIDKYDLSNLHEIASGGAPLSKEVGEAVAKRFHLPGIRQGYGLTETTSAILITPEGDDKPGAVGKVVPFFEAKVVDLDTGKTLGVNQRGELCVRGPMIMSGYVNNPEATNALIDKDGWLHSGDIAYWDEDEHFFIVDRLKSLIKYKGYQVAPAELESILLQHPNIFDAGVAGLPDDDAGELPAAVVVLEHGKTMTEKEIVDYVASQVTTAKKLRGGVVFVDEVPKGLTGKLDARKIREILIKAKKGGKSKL

[11] = Luminescence Cell-Based Dose Confirmation HTS to Identify Inhibitors of Platelet Dense Granule Release. [Related pubchem assays: 1663 (Primary HTS), 1678 (Summary of Project)]; assay type: functional
[12] = cytotoxicity in HEK-293T cells, dose response, cytotoxicity control for BCR NF-kB inhibitor project, luminescence, B-cell screen hits (AID 489021); assay type: functional, cell-based;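 also: HEK-293T cells carrying an NF-kB luciferase reporter; cells exposed to compound for about 14 hours before viability readout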
[13] = target: T2, Histone-lysine N-methyltransferase NSD2 (Homo sapiens, UniProt O96028); assay type: biochemical
T2 sequence (O96028 whole entry): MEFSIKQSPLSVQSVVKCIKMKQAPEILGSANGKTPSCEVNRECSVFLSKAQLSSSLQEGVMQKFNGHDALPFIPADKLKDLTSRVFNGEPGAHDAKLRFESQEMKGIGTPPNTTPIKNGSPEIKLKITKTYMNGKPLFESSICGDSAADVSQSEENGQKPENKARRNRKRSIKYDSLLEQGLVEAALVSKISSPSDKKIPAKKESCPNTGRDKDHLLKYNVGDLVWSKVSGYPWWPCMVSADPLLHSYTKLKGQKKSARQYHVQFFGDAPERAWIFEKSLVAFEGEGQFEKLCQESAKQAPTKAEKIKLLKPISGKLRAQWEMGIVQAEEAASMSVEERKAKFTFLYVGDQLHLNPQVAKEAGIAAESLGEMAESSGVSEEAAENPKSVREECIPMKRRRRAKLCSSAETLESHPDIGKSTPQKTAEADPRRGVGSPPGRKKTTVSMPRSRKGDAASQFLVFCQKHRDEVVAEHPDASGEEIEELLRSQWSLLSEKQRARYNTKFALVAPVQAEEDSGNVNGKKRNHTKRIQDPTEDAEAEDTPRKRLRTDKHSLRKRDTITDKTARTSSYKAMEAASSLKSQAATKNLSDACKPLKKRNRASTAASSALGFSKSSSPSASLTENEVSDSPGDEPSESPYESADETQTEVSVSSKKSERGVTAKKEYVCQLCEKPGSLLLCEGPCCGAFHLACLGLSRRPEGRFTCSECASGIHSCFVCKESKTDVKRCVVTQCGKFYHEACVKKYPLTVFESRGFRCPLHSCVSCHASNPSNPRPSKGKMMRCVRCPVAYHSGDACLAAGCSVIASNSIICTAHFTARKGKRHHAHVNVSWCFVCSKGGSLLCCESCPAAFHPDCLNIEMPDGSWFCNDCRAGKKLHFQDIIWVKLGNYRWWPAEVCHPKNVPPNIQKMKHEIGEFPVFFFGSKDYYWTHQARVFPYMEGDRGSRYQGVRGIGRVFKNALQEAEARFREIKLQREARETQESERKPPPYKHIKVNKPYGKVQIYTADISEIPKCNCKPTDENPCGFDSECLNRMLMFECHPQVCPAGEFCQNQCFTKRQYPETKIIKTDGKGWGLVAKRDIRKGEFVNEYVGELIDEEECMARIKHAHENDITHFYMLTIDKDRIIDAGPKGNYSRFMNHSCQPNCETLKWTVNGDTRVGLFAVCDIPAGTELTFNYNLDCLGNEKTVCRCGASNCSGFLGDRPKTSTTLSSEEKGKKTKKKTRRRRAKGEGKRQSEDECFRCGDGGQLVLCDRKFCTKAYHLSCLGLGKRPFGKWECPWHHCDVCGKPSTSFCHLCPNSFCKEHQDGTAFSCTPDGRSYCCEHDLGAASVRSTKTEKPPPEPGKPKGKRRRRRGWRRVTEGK

NACHT, LRR and PYD domains-containing protein 3, sequence (Q96P20 whole entry, the tested form may be a part): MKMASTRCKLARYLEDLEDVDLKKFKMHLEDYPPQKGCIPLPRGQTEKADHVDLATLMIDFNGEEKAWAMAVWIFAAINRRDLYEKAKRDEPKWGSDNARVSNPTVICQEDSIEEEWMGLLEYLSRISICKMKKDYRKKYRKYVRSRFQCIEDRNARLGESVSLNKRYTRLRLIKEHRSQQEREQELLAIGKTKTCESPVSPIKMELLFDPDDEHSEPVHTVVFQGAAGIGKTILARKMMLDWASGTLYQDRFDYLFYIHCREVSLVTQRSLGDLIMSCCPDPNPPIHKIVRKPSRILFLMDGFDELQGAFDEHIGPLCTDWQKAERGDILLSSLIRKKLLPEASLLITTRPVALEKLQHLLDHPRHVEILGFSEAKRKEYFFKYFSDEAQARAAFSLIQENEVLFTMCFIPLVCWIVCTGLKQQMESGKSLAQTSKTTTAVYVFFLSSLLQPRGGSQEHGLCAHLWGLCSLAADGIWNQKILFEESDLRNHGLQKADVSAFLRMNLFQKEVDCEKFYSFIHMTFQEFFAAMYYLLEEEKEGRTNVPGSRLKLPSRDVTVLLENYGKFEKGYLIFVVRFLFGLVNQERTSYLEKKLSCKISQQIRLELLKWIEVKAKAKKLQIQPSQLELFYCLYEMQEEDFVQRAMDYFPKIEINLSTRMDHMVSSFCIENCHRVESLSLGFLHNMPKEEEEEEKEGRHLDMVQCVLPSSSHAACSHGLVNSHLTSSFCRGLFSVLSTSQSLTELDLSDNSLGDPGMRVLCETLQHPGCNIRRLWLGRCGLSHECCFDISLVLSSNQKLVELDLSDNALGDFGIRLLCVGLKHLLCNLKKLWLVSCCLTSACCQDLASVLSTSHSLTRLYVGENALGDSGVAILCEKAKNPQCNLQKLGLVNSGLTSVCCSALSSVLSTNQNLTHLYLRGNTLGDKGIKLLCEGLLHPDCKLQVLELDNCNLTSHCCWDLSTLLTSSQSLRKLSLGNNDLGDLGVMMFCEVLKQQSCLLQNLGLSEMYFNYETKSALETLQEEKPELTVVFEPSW

For `CCCCCNC(=O)C(=O)C1C(=O)Nc2ccccc21` (stereo not drawn), which IC50 [1] is on record?
The IC50 was 2.9 µM (active).

Which IC50 [2] does the source give for `Cc1ccc(S(=O)(=O)NCc2ccc(C(=O)NC3CCN(Cc4ccccc4)C3)cc2)cc1` (stereo not drawn) here?
Its IC50 is > 32 µM (inactive).

And the IC50 [3]?
The IC50 was > 32 µM (inactive).

What about the IC50 [4] of the same compound?
The IC50 was > 32 µM (inactive).

What about the IC50 [5] of the same compound?
The IC50 was > 20 µM (inactive).

Which results are given for `Cc1cc(O)nc(-n2nc(C)cc2NC(=O)c2cc3ccccc3o2)n1`?
EC50 [6]: > 16.6 µM (active); EC50 [7]: > 49.7 µM (inactive)

Which results are given for `COc1ccc(C(=O)O/N=C(\C)c2ccccc2)cc1`?
AC50 [8]: 26.1 µM (active); AC50 [9]: 90.4 µM (active); EC50 [10]: 0.637 µM (active); EC50 [11]: 3.61 µM (active)

Which results are given for `CCN(CC)CCC/N=C/c1c(-c2ccccc2)nn(-c2nc3ccccc3s2)c1O`?
IC50 [12]: > 80 µM (inactive); AC50 [13]: > 20 µM (inactive)
